Results as given in patent publication US20180055856A1, “COMBINATION OF LOW DOSE 2-METHYLENE-19-NOR-(20S)-1ALPHA, 25-DIHYDROXYVITAMIN D3 AND CALCIMIMETICS TO TREAT SECONDARY HYPERPARATHYROIDISM” (Wisconsin Alumni Research Foundation, priority 2016, published 2018).

Key:
vitamin D-deficient rats = assay: Serum calcium in vitamin D-deficient hyperparathyroid rats, dosing thrice weekly for nearly four weeks; type: in vivo, Sprague-Dawley rats
Experimental: Oral Formulations. Cinacalcet was weighed and mixed with ethanol (at least 21 mcL ethanol/mg cinacalcet) for approximately 10 minutes. After a clear solution was produced, the clear solution was mixed with an ethanolic solution of 2MD or vitamin D analog as a control. The two ethanolic solutions were mixed (approx. 15 min.) with Neobee oil so that there was no more than 14.1% of ethanol in the final dosing solution. Doses were delivered in a 0.75 mL/kg dose volume.
Intravenous Formulations. Etelcalcitide was weighed and mixed with propylene glycol (up to 5 mg etelcalcitide/ml propylene glycol) for approximately 1 minute. After a clear solution was produced ([…]), the clear solution was mixed with an ethanolic solution of 2MD or vitamin D analog as a control (no more than ˜0.6% ethanol in the final solution) for approximately 1 min. Doses were delivered in a 1 mL/kg dose volume.
Sprague-Dawley rats were made vitamin D-deficient and then placed on a high containing lactose (10%) and elevated levels of calcium (2%) and phosphorus (1.25%). After hyperparathyroidism was established in the rats, animals were administered cinacalcet or etelcalcitide, 2MD or the combination of the two thrice weekly for nearly four weeks. Blood was collected 48-72 hours after the last dose was given and PTH (Immutopics Intact PTH kit) and serum calcium (Perkin Elmer) measured. […]

[1] = test system: MRL/MpJ-FAS^1pr (MRL/lpr) mouse model of systemic lupus erythematosus; settings: calcitriol administered through the diet; cited from earlier work

## C=C1[C@H](O)CC(=C/C=C2\CCC[C@@]3(C)C2CCC3[C@@H](C)CCCC(C)(C)O)C[C@H]1O (stereo partly drawn) [2MD, 2-methylene-19-nor-(20S)-1α,25-dihydroxyvitamin D3]
Vitamin D-deficient rats; 1 ng 2MD/kg bw
  serum calcium, 2MD alone: unaffected

## C=C1/C(=C\C=C2/CCC[C@]3(C)[C@@H]([C@H](C)CCCC(C)(C)O)CC[C@@H]23)C[C@@H](O)C[C@@H]1O [calcitriol, 1α,25-(OH)2D3]
[1]
  hypercalcemia accompanying treatment: severe hypercalcemia always accompanied this treatment
  proteinuria: completely prevents proteinuria

## C[C@@H](NCCCc1cccc(C(F)(F)F)c1)c1cccc2ccccc12 [cinacalcet, (R)—N-[1-(1-naphthyl)ethyl]-3-[3-(trifluoromethyl)phenyl] propan-1-amine]
Vitamin D-deficient rats; cinacalcet alone
  decrease of serum calcium, cinacalcet alone: 0.5 mg%
